The subject of data set [1] is Cy5-labeled 13-mer (5′ Cy5 TTT GGA CTT CAG G 3′). Kind of data set: Spectral shift DNA hybridization and van't Hoff analysis. It is filed as binding. How it is done: Chemically synthesized DNA oligonucleotides were obtained from Metabion GmbH (Planegg, Germany). A Cy5-labeled 13-mer including a short poly-T spacer in front of a 10 base-long recognition sequence (sequence 5′ Cy5 TTT GGA CTT CAG G 3′) was designed as target and a complementary 10-mer (sequence 3′ CCT GAA GTC C 5′) as ligand. All other chemicals and reagents used in this study were of the highest available analytic grade.
All dual-emission spectral shift measurements in this work were performed in coated capillaries (cat# MO-K025; NanoTemper Technologies GmbH) using the Monolith X instrument equipped with dual-emission detection optics (NanoTemper Technologies GmbH). The required volume per data point was 10 μL. Environment-sensitive near-infrared dyes with an emission maximum at around 660 nm (e.g., RED 2nd Generation dyes, NanoTemper Technologies GmbH, or Cy5) were used as fluorescent reporters. For each ratiometric reading, the fluorescence was recorded simultaneously at 650 and 670 nm for 5 s (Table 1).
Lyophilized DNA oligonucleotides were resuspended in ddH2O to a concentration of 100 μM. Assay buffer (20 mM sodium phosphate buffer, pH 7.2, 100 mM NaCl, 0.05% TWEEN® 20) was prepared as twofold stock. Cy5-labeled 13-mer was further diluted in twofold assay buffer. Serial dilution of 10-mer was performed in ddH2O. The highest final concentration of 10-mer in the 16-point dilution series was 2 μM and the final concentration of Cy5-labeled 13-mer was 2.5 nM with 20 μL in each sample. For ratiometric fluorescence analysis, the device was adjusted to the desired temperature and samples were incubated for 5 min before starting the measurement. Measurements were performed at 23°C to 37°C in 2°C increments and then repeated in reverse order. Capillaries were sealed with Capillary Sealing Paste (cat# PR-P001; NanoTemper Technologies GmbH) to prevent evaporation.
Ratios of the fluorescence intensities at 670 and 650 nm were calculated automatically within the MO.Control software (NanoTemper Technologies GmbH). For Kd determination, dose–response curves were fitted with a binding model that describes a molecular interaction with a 1:1 stoichiometry according to the law of mass action. In this model, the fraction bound f(cligand) at a given ligand concentration cligand in equilibrium is given as (1) fcligand=cligand+ctarget+Kd−cligand+ctarget+Kd^2−4⋅cligand⋅ctarget/2ctarget
Van't Hoff plots were prepared by plotting the logarithm of the dissociation constant, ln Kd, over the inverse temperature, 1/T. A linear regression was then used to calculate thermodynamic parameters according to (5) ΔH=R⋅slope

Data set [2] has as its system GLUT1. Particulars: reported IC50 from cellular assays; cited from earlier work.
The target in data set [3] is bCA-II. The following applies: literature ITC; cited from earlier work.
In data set [4] the target is bCA-II. Particulars: literature SPR; cited from earlier work.
For data set [5], the target named is T1, Carbonic Anhydrase II from bovine erythrocytes (bCA-II) (Bos taurus, UniProt P00921).
T1 construct: Carbonic Anhydrase II from bovine erythrocytes; purchased Sigma Aldrich C2522; host or cells: bovine erythrocytes
Kind of data set: biochemical. The class given is binding.

Setting [6] is: van't Hoff analysis, 23°C to 37°C.

Where two headings read alike, the source gives them in different places.

T1 sequence (P00921 whole entry): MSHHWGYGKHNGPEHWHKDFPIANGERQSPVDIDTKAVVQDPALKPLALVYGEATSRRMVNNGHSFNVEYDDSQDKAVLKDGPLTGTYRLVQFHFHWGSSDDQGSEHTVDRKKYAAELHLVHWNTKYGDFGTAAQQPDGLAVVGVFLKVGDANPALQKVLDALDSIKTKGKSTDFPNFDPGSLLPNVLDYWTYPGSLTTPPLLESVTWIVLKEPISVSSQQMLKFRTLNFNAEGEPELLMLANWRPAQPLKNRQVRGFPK

Regarding “3′ CCT GAA GTC C 5′ (DNA CCTGAAGTCC; chemistry not fully specified; listed 3' to 5') [10-mer, chemically synthesized DNA 10-mer complementary to the Cy5-labeled 13-mer target]”, the Kd in data set [1] (23 °C) is 1.77 ± 0.06 nM; in data set [1] (25 °C) it was 3.35 ± 0.11 nM; in data set [1] (27 °C), 6.52 ± 0.17 nM; in data set [1] (29 °C), 12.8 ± 0.3 nM; in data set [1] (31 °C), 25.4 ± 0.4 nM; in data set [1] (33 °C), 50.4 ± 0.7 nM. Also, the Kd in data set [1] (35 °C) was found to be 102 ± 2 nM; in data set [1] (37 °C), 198 ± 4 nM. Also, the “entropy ΔS” value in data set [1] (setting [6]) is on record as −168.5 cal/mol/K. Further, the “van't Hoff enthalpy ΔH” value in data set [1] (setting [6]) was -61.8 kcal/mol.
Consider `Cc1c(NC(=O)c2cc(C(N)=O)nc3cc(F)ccc23)c(C(F)(F)F)nn1Cc1ccc(C#N)cc1` [BAY-876], for which, in data set [2], the IC50 was […].
For the compound `NS(=O)(=O)c1ccccc1` [Benzenesulfonamide, benzenesulfonamide], the Kd is 839 nM in data set [3], 848 nM in data set [4] and 502 ± 67 nM in data set [5]. Moreover, the “670 nm/650 nm ratio of labeled bCA-II upon inhibitor binding” value in data set [5] (final value, without bound inhibitor 0.884) is listed as 0.890.

In general, Kd refers to the equilibrium constant for the complex coming apart. What is called IC50 is the concentration needed to halve the response being measured.

These data come from publication PMC8968852, “A New Spectral Shift-Based Method to Characterize Molecular Interactions” (Assay and Drug Development Technologies, 2022).
